Patent US20250388597A1, “BIFUNCTIONAL PHOTOCROSSLINKING PROBES FOR COVALENT CAPTURE OF PROTEIN-NUCLEIC ACID COMPLEXES IN CELLS” (UNIVERSITY OF SOUTHERN CALIFORNIA, priority 2022, published 2025)

Columns and labels:
Hela cells = assay: Cell and nuclear permeability by click labelling with Alexa Fluor 647 picolyl azide, fluorescence imaging; format: cell-based; conditions: for dependence of immobilized fluorescent signal on probe concentration: 10 μM vs 100 μM under UV illumination, FIG. 14B; for immobilization of Alexa Fluor 647 picolyl azide in cells (cell and nuclear permeability): probe 10 μM or 100 μM, 30 min, UV 365 nm 5 min
Text: FIG. 11A-FIG. 11F depicts permeability and subcellular distribution of the BFPX probe SPB-AAD in Hela cell. Top panel (FIG. 11A-FIG. 11C): buffer control experiments without adding SPB-AAD, (FIG. 11A) bright field; (FIG. 11B) fluorescence imaging of Alexa Fluor; (FIG. 11C) DAPI stain of the nuclei; Bottom panel: treatment with […], (FIG. 11D) bright field; (FIG. 11E) fluorescence imaging of Alexa Fluor; (FIG. 11F) DAPI stain of the nuclei.
FIG. 14A depicts characterization and testing of BFPX crosslinking inside cells. Hela cells were incubated with SPB-AAD or SPB-PEG4-AAD (10 μM or 100 μM) in the dark for 30 min to allow the DNA binding and intercalation by the psoralen moiety of the BFPX probes. After washing off the excessive BFPX probe, illuminate UV 365 nm for 5 min. An Alexa Fluor 647 picolyl azide molecule (from Click-iT™ Plus Alexa Fluor™ 647 Picolyl Azide Toolkit) was used to react with the alkyne group on SPB-AAD or SPB-PEG4-AAD via click reaction. After the click chemistry labeling, the unreacted fluorescent molecules were removed by washing. The nuclei were analyzed using fluorescence imaging. When no BFPX probes were added (columns 1 and 2) or adding probes without UV treatment (columns 3 and 6), little or no fluorescence signal was retained in the cells.
We next tested the cell and nuclear permeability of the BFPX probes using azide-containing fluorescent molecules through click reaction with the terminal alkyne in SPB-AAD and SPB-PEG4-AAD. Briefly, Hela cells were incubated with SPB-AAD or SPB-PEG4-AAD (10 μM or 100 μM) in the dark for 30 min to allow the DNA binding and intercalation by the psoralen moiety of the BFPX probes. After washing off the excess BFPX probes followed by illumination of UV 365 nm for 5 min, Alexa Fluor 647 picolyl azide was coupled to the alkyne group on SPB-AAD or SPB-PEG4-AAD via click reaction. After the click chemistry labeling, the unreacted fluorescent molecules were removed by washing. The nuclei were then be analyzed using fluorescence imaging (FIG. 14A). When no BFPX probes were added (columns 1 and 2) or adding probes without UV treatment (columns 3 and 6), little or no fluorescence signal was retained in the cells.
We also analyzed (i) cell permeability and subcellular distribution of the BFPX probes. We validated the cell and nuclear permeability of the BFPX probes and monitored their sub-cellular distribution using azide-containing fluorescent label through click reaction with the alkyne group (as in SPB-AAD and SPB-PEG3-AAD). Briefly, Hela cells were incubated with SPB-AAD (25 μM) in the dark for 30 min to allow the DNA binding and intercalation by the psoralen moiety of the BFPX probe. […] The nuclei were then analyzed using fluorescence imaging (FIG. 11). […]

[1] = Precipitation of probe in the aqueous crosslinking reaction; format: physicochemical; conditions: aqueous binding reaction; SPB-AAD 125 μM (FIG. 7 lanes 4, 9); SPB-PEG3-AAD 100 μM (FIG. 8C lanes 2, 6)
Method: The robust stability of these complexes under strong denaturing conditions (2% SDS and boiling for 10 min) is consistent with the covalent nature of the crosslinking reaction as designed in BFPX. […] As the probe concentration increased, more crosslinked protein/DNA complexes were formed, and the multiple bands likely represented protein-DNA complexes with various degrees of crosslinking, because multiple SPB-AAD molecules could bind the flanking region of the DNA binding sites and engage crosslinking reactions with the protein. At high probe concentrations (lane 5 and lane 10), the complexes become more uniform, likely due to the saturation binding of the BFPX probe to DNA.
For the BFPX probe SPB-PEG3-AAD, when the probe concentration was sufficiently high (lane 3 and lane 7 of FIG. 8C), the crosslinking efficiency was more than 90% for the MEF2/DNA complex based on the DNA signal (comparing lane 3 and lane 1 in the 5FAM gel, the free DNA in lane 3 was nearly all gone as compared the strong band in lane 1). This is consistent with the protein signal (compare lane 3 and lane 1 in the CCB-250 stained gel, the free protein in lane 3 was very faint as compared with the strong band in lane 1).

FOXP3 in Hela cells = biological target: T1, FOXP3 in Hela cells (Homo sapiens, UniProt Q9BZS1); assay: Capture of AVI-TEV-FLAG tagged FOXP3 complexes in transfected Hela cells, western blot; format: cell-based
T1 construct: AVI tag; TEV site; expressed in transfected cells; host or cells: Hela
T1 sequence (Q9BZS1 1-431): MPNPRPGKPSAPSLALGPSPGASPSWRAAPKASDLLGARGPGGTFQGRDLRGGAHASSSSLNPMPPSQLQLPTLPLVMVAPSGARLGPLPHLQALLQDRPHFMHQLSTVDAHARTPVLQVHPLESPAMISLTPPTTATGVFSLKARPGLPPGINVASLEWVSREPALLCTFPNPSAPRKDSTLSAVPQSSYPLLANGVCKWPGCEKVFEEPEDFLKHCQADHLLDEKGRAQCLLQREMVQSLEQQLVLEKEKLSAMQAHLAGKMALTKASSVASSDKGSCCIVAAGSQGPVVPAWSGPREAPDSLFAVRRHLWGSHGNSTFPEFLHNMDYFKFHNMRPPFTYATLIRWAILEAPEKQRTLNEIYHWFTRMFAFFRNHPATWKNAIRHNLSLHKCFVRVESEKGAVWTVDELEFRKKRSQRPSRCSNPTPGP
Method: FIG. 10B depicts Western blot analysis of Hela cells transfected with AVI-TEV-FLAG tagged FOXP3. For each lane, approximately one million of cells were used. Lane 1 was fixed with 1% formaldehyde (FA) for 10 min according to standard protocol. Lane 2, untreated control, Lane 3, UV only, lane 4 and lane 6 were treated with SPB-AAD of 1 or 10 μM, respectively but without UV illumination, lane 5 and lane 7 were treated with SPB-AAD of 1 or 10 μM, respectively and illuminated by UV365 (10 min, 30 W, LED, sample distance 3 cm, cooling at 4 degree C.). The cells were lysed using RIPA buffer and further digested by MNase. The sample mixtures were mixed with SDS loading dye (2% SDS, boil for 10 min) and run on SDS gel for western blot analyses of using Anti-FLAG antibody.
We have performed similar experiments with a different system, Hela cells transfected with AVI-TEV-FLAG tagged FOXP3.

dependence of immobilized fluorescent signal on probe concentration (Hela cells)	dependence of higher molecular weight FOXP3 complex formation on probe concentration (FOXP3 in Hela cells; 10 μM (lane 7) vs 1 μM (lane 5))	Compound	immobilization of Alexa Fluor 647 picolyl azide in cells (cell and nuclear permeability) (Hela cells)	precipitation of probe at highest probe concentration [1]	capture of higher molecular weight FOXP3 complexes (FOXP3 in Hela cells; probe 1 or 10 μM + UV365 10 min (lanes 5 and 7))
dosage dependent	–	C#CCCC1(CCNC(=O)CCOCCOCCOCCOCCNC(=O)CCCOc2c3occc3cc3ccc(=O)oc23)N=N1 [SPB-PEG4-AAD, N-(2-(3-(but-3-yn-1-yl)-3H-diazirin-3-yl)ethyl)-1-(4-((7-oxo-7H-furo[3,2-g]chromen-9-yl)oxy)butanamido)-3,6,9,12-tetraoxapentadecan-15-amide]	could be immobilized in the cells via click reaction	–	–
–	–	C#CCCC1(CCNC(=O)CCOCCOCCOCCC(=O)NCCNC(=O)CCCOc2c3occc3cc3ccc(=O)oc23)N=N1 [SPB-PEG3-AAD]	–	the probe precipitated out of solution	–
dosage dependent	dosage dependent	C#CCCC1(CCNC(=O)CCCOc2c3occc3cc3ccc(=O)oc23)N=N1 [SPB-AAD, N-(2-(3-(but-3-yn-1-yl)-3H-diazirin-3-yl)ethyl)-4-((7-oxo-7H-furo[3,2-g]chromen-9-yl)oxy)butanamide]	could be immobilized in the cells via click reaction	precipitation of the probe in an aqueous solution	can capture higher molecular weight FOXP3 complexes
